Reference: ChEMBL document CHEMBL4732070, “Design, synthesis and biological assessment of new selective COX-2 inhibitors including methyl sulfonyl moiety” (Eur J Med Chem, 2021)

Legend:
[1] = biological target: T1, Prostaglandin G/H synthase 1 (Homo sapiens, UniProt P23219); experiment: Inhibition of COX-1 (unknown origin) using arachidonic acid as substrate at 100 uM measured after 10 mins by fluorometric based multimode microplate reader relative to control
[2] = biological target: T1, Prostaglandin G/H synthase 1; experiment: Inhibition of COX-1 (unknown origin) using arachidonic acid as substrate at 1000 uM measured after 10 mins by fluorometric based multimode microplate reader relative to control
[3] = biological target: T1, Prostaglandin G/H synthase 1; experiment: Inhibition of COX-1 (unknown origin) using arachidonic acid as substrate measured after 10 mins by fluorometric based multimode microplate reader

T1 sequence (P23219 whole entry): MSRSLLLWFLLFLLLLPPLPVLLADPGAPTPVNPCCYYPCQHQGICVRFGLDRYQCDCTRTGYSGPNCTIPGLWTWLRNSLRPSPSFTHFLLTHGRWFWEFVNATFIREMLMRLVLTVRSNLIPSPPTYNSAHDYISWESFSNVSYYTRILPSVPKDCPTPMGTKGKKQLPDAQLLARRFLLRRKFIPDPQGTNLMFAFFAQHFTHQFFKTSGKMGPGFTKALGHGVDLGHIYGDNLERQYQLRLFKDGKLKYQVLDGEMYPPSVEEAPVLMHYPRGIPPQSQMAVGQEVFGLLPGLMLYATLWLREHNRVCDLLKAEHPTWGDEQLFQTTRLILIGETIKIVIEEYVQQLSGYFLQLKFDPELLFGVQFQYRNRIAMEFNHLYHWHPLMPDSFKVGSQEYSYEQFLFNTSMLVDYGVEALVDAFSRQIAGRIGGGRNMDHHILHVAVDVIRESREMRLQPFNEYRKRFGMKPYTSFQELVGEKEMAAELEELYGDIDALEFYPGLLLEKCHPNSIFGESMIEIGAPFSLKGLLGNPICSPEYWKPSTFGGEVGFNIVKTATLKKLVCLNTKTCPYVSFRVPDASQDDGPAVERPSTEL

Row | Compound | inhibition [1] [%] | inhibition [2] [%] | IC50 [3] [µM]
1 | COc1cc(/C=N/Nc2nc(-c3ccc(S(C)(=O)=O)cc3)cs2)cc(OC)c1O | 32.3 | 43.3 | > 1000
2 | CC(C)Cc1ccc(C(C)C(=O)O)cc1 (configuration not stated) | 89.4 |  | 
3 | COc1cc(/C=N/Nc2nc(-c3ccc(S(C)(=O)=O)cc3)cs2)cc(OC)c1OC | 35.8 | 45.7 | > 1000
4 | CS(=O)(=O)c1ccc(-c2csc(N/N=C/c3ccc(O)cc3)n2)cc1 | 32.2 | 48.9 | > 1000
5 | COc1ccc(/C=N/Nc2nc(-c3ccc(S(C)(=O)=O)cc3)cs2)cc1OC | 40 | 55.6 | > 100

Further lines, results first:

Row | inhibition [1] [%] | inhibition [2] [%] | IC50 [3] [µM] | Compound
6 | 27.7 | 44.6 | > 1000 | COc1ccc(/C=N/Nc2nc(-c3ccc(S(C)(=O)=O)cc3)cs2)c(OC)c1
7 | 40.8 | 57.4 | > 100 | COc1cccc(/C=N/Nc2nc(-c3ccc(S(C)(=O)=O)cc3)cs2)c1OC
8 | 43 | 53 | > 100 | COc1ccc(O)c(/C=N/Nc2nc(-c3ccc(S(C)(=O)=O)cc3)cs2)c1
9 | 41.2 | 61.3 | > 100 | COc1ccc(/C=N/Nc2nc(-c3ccc(S(C)(=O)=O)cc3)cs2)cc1O
10 | 30.8 | 43.1 | > 1000 | COc1ccccc1/C=N/Nc1nc(-c2ccc(S(C)(=O)=O)cc2)cs1
11 | 40.9 | 66.3 | > 100 | CS(=O)(=O)c1ccc(-c2csc(N/N=C/c3cccc(O)c3)n2)cc1
12 | 35 | 60 | > 100 | COc1ccc(OC)c(/C=N/Nc2nc(-c3ccc(S(C)(=O)=O)cc3)cs2)c1
13 | 31.4 | 47.1 | > 1000 | CS(=O)(=O)c1ccc(-c2csc(N/N=C/c3ccc(O)cc3O)n2)cc1
